# Measurements from EP4796125A1, “TREATMENT OF PATIENT WITH NEGATIVE P53 GENE MUTATION, POSITIVE KRAS GENE MUTATION AND POSITIVE BRCA MUTATION” (Ascentawits Pharmaceuticals, Ltd., priority 2023, dated 2025).
# Legend:
# [1] = system: hepatocellular carcinoma; test: Phase II clinical trial of AST-3424 conducted in China (CTR20191399); format: in vivo, human
# Description: The clinical trial registration number is CTR20191399.
# • 1. Male or female, aged ≥18 years. • 2. Pathohistologically confirmed advanced HCC that cannot be controlled by surgical resection or local therapy. • 3. Previously received standard systemic therapy, including but not limited to, Sorafenib and/or Oxaliplatin-containing systemic chemotherapy, Lenvatinib, Regorafenib, and/or Nivolumab, experienced disease progression, toxicity intolerance, or refusal to continue treatment with these drugs. • 4. At least one measurable lesion according to RECIST 1.1 criteria. Previously irradiated lesions cannot be considered as measurable lesions unless clear radiographic progression is observed after radiotherapy. • 5. […] Eastern Cooperative Oncology Group (ECOG) performance status score of 0 or 1. • 7. Life expectancy ≥ 12 weeks. • 8. With or without HBV or HCV infection. • a. Subjects with HBV infection must have HBV-DNA level less than 2,000 IU/ml, and receive antiviral therapy with entecavir, tenofovir disoproxil fumarate, or tenofovir alafenamide fumarate according to the national guidelines for the prevention and treatment of chronic hepatitis B. The therapy must be maintained during the study and continue for 6 months after the last dose. • b. Subjects with HCV infection (with detectable HCV-RNA or anti-HCV antibodies) may receive treatment according to medical practice. • 9. Child-Pugh score ≤ 6 points. • 10. No history of hepatic encephalopathy. • 11. Before starting to use the study drug, all toxicities from previous anticancer therapies (except alopecia, fatigue, or peripheral neuropathy) must have recovered to Grade 1 or baseline levels (NCI CTCAE Version 5). • 12. Laboratory tests must meet the following criteria. During 14 days before laboratory tests at screening, indicators cannot be corrected by blood transfusion, hematopoietic stimulating factor or albumin infusion is allowed to meet the inclusion criteria. • a. Hemoglobin ≥ 90 g/L; • b. Platelet count ≥ 80 × 10^9/L; • c. Absolute neutrophil count (ANC) ≥ 1.5 × 10^9/L; • d. Serum total bilirubin ≤ 3 mg/dL; • e. ALT and AST ≤ 5.0 × ULN; • f. International normalized ratio (INR) ≤ 2.3 or prothrombin time prolongation ≤ 6 seconds; • g. Albumin ≥ 29 g/L; • h. Creatinine clearance > 50 mL/min as measured according to the Cockcroft-Gault equation. • 13. No history of alcohol abuse, drug addiction or substance abuse within the past year. • 14. Fertile female patients must be in non-lactating and have a negative pregnancy test result within 5 days before the initiation of treatment (positive urine pregnancy test result needs to be confirmed by a serum pregnancy test). • 15. Fertile female and male subjects must agree to use effective contraceptive measures (e.g. surgical sterilization or condom or diaphragm contraceptive measures combined with spermicidal gel or intrauterine contraceptive device [IUD], etc.) with their partners from the start of study participation until 6 months after the last dose. • 16. Voluntary participation in this study, fully understanding of relevant risks, good compliance, and signing the informed consent form. Subjects may also sign a consent form for future biomedical research (FBR). However, subjects who would not participate in FBR may still participate in the main trial.
# • 1. Untreated active central nervous system (CNS) metastases or leptomeningeal disease. Subjects with adequately treated CNS metastases may participate if they are confirmed to be stable for at least 4 weeks by clinical examination and brain imaging (MRI or CT) during screening. • 2. History of other malignant tumors within 2 years, except for adequately treated basal cell carcinoma, carcinoma in situ at other sites, or other tumors of which the natural medical history and the treatment will not interfere with the safety or efficacy assessment of the current study. • 3. Major surgery (other than diagnostic surgery) performed within 4 weeks prior to the first dose. • 4. […]
# [2] = system: PDX and CDX models with high expression of AKR1C3 enzyme; conditions: WO2023/046060, Examples 1-9; cited from earlier work
# [3] = 6 cases positive (+) for BRCA gene mutation, as of March 11, 2024
# [4] = 8 cases negative (-) for BRCA gene mutation, as of March 11, 2024
# [5] = 8 cases positive (+) for p53 gene mutation which may affect protein expression (MUT), as of March 11, 2024
# [6] = 9 cases negative (-) for p53 gene mutation (WT), as of March 11, 2024
# [7] = 18 liver cancer subjects who completed the clinical efficacy evaluation
# [8] = 30 enrolled subjects, as of March 11, 2024
# [9] = subgroup of 5 cases negative (-) for BRCA gene mutation, Table 4 data
# [10] = subgroup of 5 cases negative (-) for p53 gene mutation or deficiency, Table 4 data
# [11] = subgroup of 5 cases positive (+) for BRCA gene mutation, Table 4 data
# [12] = subgroup of 5 cases positive (+) for p53 gene mutation or deficiency, Table 4 data
smiles,measurement,setting,value
C[C@H](OP(=O)(N1CC1)N1CC1)c1ccc([N+](=O)[O-])c(Oc2cccc(C(=O)N(C)C)c2)c1 [AST-3424],DCR,[1]; [3],66.7%
same,ORR,[1]; [3],16.7%
same,longest OS,[1]; [3],more than 13.8 months
same,longest PFS,[1]; [3],more than 11.5 months
same,mean OS,[1]; [3],more than 9.5 months
same,mean PFS,[1]; [3],4.5 months
same,DCR,[1]; [4],50%
same,ORR,[1]; [4],0%
same,longest OS,[1]; [4],more than 17.6 months
same,longest PFS,[1]; [4],2.9 months
same,mean OS,[1]; [4],more than 9.4 months
same,mean PFS,[1]; [4],1.9 months
same,DCR,[1]; [5],25%
same,ORR,[1]; [5],0%
same,longest OS,[1]; [5],> 14.0 months
same,longest PFS,[1]; [5],1.6 months
same,mean OS,[1]; [5],more than 9.3 months
same,mean PFS,[1]; [5],1.4 months
same,DCR,[1]; [6],77.8%
same,ORR,[1]; [6],22.2%
same,longest OS,[1]; [6],> 13.8 months
same,longest PFS,[1]; [6],more than 11.5 months
same,mean OS,[1]; [6],more than 7.7 months
same,mean PFS,[1]; [6],more than 4.1 months
same,DCR,[1]; [7],61.1%
same,ORR,[1]; [7],5.6%
same,longest OS,[1]; [8],> 17.6 months
same,longest PFS,[1]; [8],> 11.5 months
same,DCR,[1]; [9],60%
same,ORR,[1]; [9],0%
same,mean PFS,[1]; [9],1.976 months
same,DCR,[1]; [10],80%
same,ORR,[1]; [10],20%
same,mean PFS,[1]; [10],4.1 months
same,DCR,[1]; [11],80%
same,ORR,[1]; [11],20%
same,mean PFS,[1]; [11],3.82 months
same,DCR,[1]; [12],60%
same,ORR,[1]; [12],0%
same,mean PFS,[1]; [12],1.756 months
same,anti-tumor effects,[2],significant anti-tumor effects
same,tolerability,[2],well tolerated
